Where “and” joins values, the source holds several entries; their conditions need not be identical. Identical values can stand only once. Toxic doses and inconclusive results are not listed.
System: BDF1 mice, P388 leukemia ip, median survival T/C
Assay: NCI In Vivo Anticancer Drug Screen. Data for tumor model P388 Leukemia (intraperitoneal) in B6D2F1 (BDF1) mice
Details: endpoint: median survival time, higher = longer survival
Outline: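 Survival ratio, drug arm over vehicle arm, in mice with a transplanted tumour.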

[1] = dose: 12.5 mg/kg/injection, schedule: Q01DX009 (ip), vehicle: saline with Tween-80
[2] = dose: 12.5 mg/kg/injection, schedule: Q04DX003 (ip), vehicle: saline with Tween-80
[3] = dose: 25.0 mg/kg/injection, schedule: Q01DX009 (ip), vehicle: saline with Tween-80
[4] = dose: 50.0 mg/kg/injection, schedule: Q01DX009 (ip), vehicle: saline with Tween-80
[5] = dose: 50.0 mg/kg/injection, schedule: Q04DX003 (ip), vehicle: saline with Tween-80
[6] = dose: 100.0 mg/kg/injection, schedule: Q04DX003 (ip), vehicle: saline with Tween-80
[7] = dose: 200.0 mg/kg/injection, schedule: Q04DX003 (ip), vehicle: saline with Tween-80
[8] = dose: 100.0 mg/kg/injection, schedule: Q01DX009 (ip), vehicle: saline with Tween-80
[9] = dose: 100.0 mg/kg/injection, schedule: Q04DX003 (ip), vehicle: Klucel (hydroxypropylcellulose) (HPC)
[10] = dose: 200.0 mg/kg/injection, schedule: Q04DX003 (ip), vehicle: Klucel (hydroxypropylcellulose) (HPC)
[11] = dose: 400.0 mg/kg/injection, schedule: Q04DX003 (ip), vehicle: Klucel (hydroxypropylcellulose) (HPC)
[12] = dose: 400.0 mg/kg/injection, schedule: Q04DX003 (ip), vehicle: saline with Tween-80

SMILES: O=C(CNC(=O)Nc1ccc(C2=NCCN2)cc1)Nc1ccc(C2=NCCN2)cc1
- T/C [1]: 104 % of control
- T/C [2]: 100 % of control
- T/C (dose: 22.0 mg/kg/injection, schedule: Q01DX009 (ip), vehicle: saline with Tween-80): 100 % of control
- T/C [3]: 120 % of control
- T/C (dose: 25.0 mg/kg/injection, schedule: Q04DX003 (ip), vehicle: saline with Tween-80): 118 % of control
- T/C (dose: 33.0 mg/kg/injection, schedule: Q01DX009 (ip), vehicle: saline with Tween-80): 114 % of control
- T/C [4]: 166 % of control
- T/C [5]: 109 % of control
- T/C (dose: 75.0 mg/kg/injection, schedule: Q01DX009 (ip), vehicle: saline with Tween-80): 153 % of control

SMILES: C=CCC1(CC)C(=O)NC(=O)NC1=O
- T/C [5]: 91 % of control
- T/C [6]: 91 % of control
- T/C [7]: 91 % of control

SMILES: CCN(CC)CCOC(=O)C(c1ccccc1)C1(O)CCCC(C)C1 (centres undefined)
- T/C (dose: 50.0 mg/kg/injection, schedule: Q01DX005 (ip), vehicle: saline): 98 % of control
- T/C (dose: 100.0 mg/kg/injection, schedule: Q01DX005 (ip), vehicle: saline): 90 % of control
- T/C (dose: 200.0 mg/kg/injection, schedule: Q01DX005 (ip), vehicle: saline): 110 % of control

SMILES: CC(C)COC(=O)CN(CC(=O)OCC(C)C)c1ccccc1
- T/C [8]: 95 % of control
- T/C (dose: 200.0 mg/kg/injection, schedule: Q01DX009 (ip), vehicle: saline with Tween-80): 100 % of control
- T/C (dose: 400.0 mg/kg/injection, schedule: Q01DX009 (ip), vehicle: saline with Tween-80): 110 % of control

SMILES: CC1=NNC(=O)/C1=C\c1ccc(N(C)C)cc1
- T/C [3]: 95 % of control
- T/C [8]: 93 % of control

SMILES: Cc1ccc(NC(=O)NCC2(C)CC(NC(=O)Nc3ccc(C)cc3)CC(C)(C)C2)cc1 (centres undefined)
- T/C (dose: 12.5 mg/kg/injection, schedule: Q01DX009 (ip), vehicle: Klucel (hydroxypropylcellulose) (HPC)): 100 % of control
- T/C (dose: 25.0 mg/kg/injection, schedule: Q01DX009 (ip), vehicle: Klucel (hydroxypropylcellulose) (HPC)): 100 % of control
- T/C (dose: 50.0 mg/kg/injection, schedule: Q01DX009 (ip), vehicle: Klucel (hydroxypropylcellulose) (HPC)): 100 % of control
- T/C (dose: 75.0 mg/kg/injection, schedule: Q01DX009 (ip), vehicle: Klucel (hydroxypropylcellulose) (HPC)): 90 % of control
- T/C (dose: 115.0 mg/kg/injection, schedule: Q01DX009 (ip), vehicle: Klucel (hydroxypropylcellulose) (HPC)): 90 % of control
- T/C (dose: 170.0 mg/kg/injection, schedule: Q01DX009 (ip), vehicle: Klucel (hydroxypropylcellulose) (HPC)): 90 % of control

SMILES: CS(=O)(=O)OCCN(CCOS(C)(=O)=O)c1ccc(C=O)cc1
- T/C (dose: 3.0 mg/kg/injection, schedule: Q04DX003 (ip), vehicle: saline with Tween-80): 227 % of control
- T/C (dose: 3.13 mg/kg/injection, schedule: Q01DX009 (ip), vehicle: saline with Tween-80): 210 % of control
- T/C (dose: 5.0 mg/kg/injection, schedule: Q04DX003 (ip), vehicle: saline with Tween-80): 177 % of control
- T/C (dose: 6.25 mg/kg/injection, schedule: Q01DX009 (ip), vehicle: saline with Tween-80): 229 % of control
- T/C (dose: 8.0 mg/kg/injection, schedule: Q01DX009 (ip), vehicle: saline with Tween-80): 237 % of control
- T/C (dose: 8.0 mg/kg/injection, schedule: Q04DX003 (ip), vehicle: saline with Tween-80): 181 % of control
- T/C (dose: 8.25 mg/kg/injection, schedule: Q04DX003 (ip), vehicle: saline with Tween-80): 195 % of control
- T/C (dose: 12.0 mg/kg/injection, schedule: Q01DX009 (ip), vehicle: saline with Tween-80): 212 % of control
- T/C [1]: 231 % of control and 176 % of control
- T/C [2]: 212 % of control
- T/C (dose: 18.0 mg/kg/injection, schedule: Q01DX009 (ip), vehicle: saline with Tween-80): 250 % of control
- T/C (dose: 18.75 mg/kg/injection, schedule: Q04DX003 (ip), vehicle: saline with Tween-80): 250 % of control
- T/C [3]: 86 % of control

SMILES: Cc1ccc(NC(=O)N(CCCl)N=O)cc1C
- T/C (dose: 6.6 mg/kg/injection, schedule: Q04DX003 (ip), vehicle: saline with Tween-80): 159 % of control
- T/C (dose: 10.0 mg/kg/injection, schedule: Q04DX003 (ip), vehicle: saline with Tween-80): 209 % of control
- T/C (dose: 15.0 mg/kg/injection, schedule: Q04DX003 (ip), vehicle: saline with Tween-80): 204 % of control

SMILES: BrC1C2CCC(CC2)C1Br (centres undefined)
- T/C (dose: 100.0 mg/kg/injection, schedule: Q01DX009 (ip), vehicle: Klucel (hydroxypropylcellulose) (HPC)): 100 % of control
- T/C [9]: 95 % of control
- T/C (dose: 200.0 mg/kg/injection, schedule: Q01DX009 (ip), vehicle: Klucel (hydroxypropylcellulose) (HPC)): 104 % of control
- T/C [10]: 95 % of control
- T/C [11]: 91 % of control

SMILES: CCCCCCCCCCCCOc1ccccc1C=O
- T/C (dose: 50.0 mg/kg/injection, schedule: Q04DX003 (ip), vehicle: Klucel (hydroxypropylcellulose) (HPC)): 104 % of control
- T/C [9]: 100 % of control
- T/C (dose: 100.0 mg/kg/injection, schedule: Q04DX003 (ip), vehicle: saline sonified): 118 % of control
- T/C [10]: 118 % of control
- T/C (dose: 200.0 mg/kg/injection, schedule: Q04DX003 (ip), vehicle: saline sonified): 122 % of control
- T/C [11]: 109 % of control

SMILES: CC(C)(C)OP(=O)(OC(C)(C)C)c1ccccc1
- T/C [4]: 118 % of control
- T/C [8]: 98 % of control

SMILES: COC(=O)c1cc(Cl)cc(C(=O)OC)c1
- T/C [6]: 100 % of control
- T/C [7]: 90 % of control
- T/C [12]: 95 % of control

SMILES: c1ccc2c(c1)[nH]c1nc3ncncc3nc12
- T/C (dose: 100.0 mg/kg/injection, schedule: Q04DX003 (ip), vehicle: saline): 122 % of control
- T/C (dose: 200.0 mg/kg/injection, schedule: Q04DX003 (ip), vehicle: saline): 100 % of control
- T/C (dose: 400.0 mg/kg/injection, schedule: Q04DX003 (ip), vehicle: saline): 100 % of control

SMILES: CCN1CCCC(Nc2cc(C)nc(Nc3nc4cc(Cl)c(Cl)cc4[nH]3)n2)C1 (centres undefined)
- T/C (dose: 1.56 mg/kg/injection, schedule: Q01DX009 (ip), vehicle: Klucel (hydroxypropylcellulose) (HPC)): 100 % of control
- T/C (dose: 3.12 mg/kg/injection, schedule: Q01DX009 (ip), vehicle: Klucel (hydroxypropylcellulose) (HPC)): 90 % of control
- T/C (dose: 6.25 mg/kg/injection, schedule: Q01DX009 (ip), vehicle: Klucel (hydroxypropylcellulose) (HPC)): 100 % of control

SMILES: C/C=C/C(=O)OCC1CC[N+](C)([O-])C1 (centres undefined)
- T/C (dose: 200.0 mg/kg/injection, schedule: Q01DX001 (ip), vehicle: saline): 91 % of control
- T/C (dose: 200.0 mg/kg/injection, schedule: Q01DX009 (ip), vehicle: saline): 117 % of control
- T/C (dose: 400.0 mg/kg/injection, schedule: Q01DX001 (ip), vehicle: saline): 91 % of control
- T/C (dose: 800.0 mg/kg/injection, schedule: Q01DX001 (ip), vehicle: saline): 100 % of control
- T/C (dose: 800.0 mg/kg/injection, schedule: Q01DX009 (ip), vehicle: saline): 99 % of control
- T/C (dose: 1600.0 mg/kg/injection, schedule: Q01DX001 (ip), vehicle: saline): 95 % of control

SMILES: C=C(C)C(=O)O[C@@H]1C[C@@]2(C)O[C@@H]2C[C@H](O)/C(C)=C/[C@H]2OC(=O)C(=C)[C@@H]21
- T/C (dose: 6.0 mg/kg/injection, schedule: Q01DX009 (ip), vehicle: saline + alcohol): 113 % of control
- T/C (dose: 12.0 mg/kg/injection, schedule: Q01DX009 (ip), vehicle: saline + alcohol): 109 % of control
- T/C (dose: 48.0 mg/kg/injection, schedule: Q01DX009 (ip), vehicle: saline + alcohol): 113 % of control

SMILES: C[C@]12CC[C@@H]3c4ccccc4CC[C@H]3[C@@H]1CC[C@@H]2O
- T/C [6]: 90 % of control
- T/C [7]: 90 % of control
- T/C [12]: 100 % of control

SMILES: N#Cc1cc2c3c(c1)CCCN3CCC2
- T/C (dose: 40.0 mg/kg/injection, schedule: Q01DX001 (ip), vehicle: saline with Tween-80): 100 % of control
- T/C (dose: 80.0 mg/kg/injection, schedule: Q01DX001 (ip), vehicle: saline with Tween-80): 95 % of control
- T/C (dose: 160.0 mg/kg/injection, schedule: Q01DX001 (ip), vehicle: saline with Tween-80): 109 % of control

SMILES: O=C1C(NCC(O)CO)=C(N2CC2)C(=O)C(NCC(O)CO)=C1N1CC1 (centres undefined)
- T/C (dose: 0.5 mg/kg/injection, schedule: Q01DX009 (ip), vehicle: saline): 98 % of control
- T/C (dose: 1.5 mg/kg/injection, schedule: Q01DX009 (ip), vehicle: saline): 233 % of control
- T/C (dose: 2.0 mg/kg/injection, schedule: Q01DX009 (ip), vehicle: saline): 116 % of control and 213 % of control
- T/C (dose: 4.0 mg/kg/injection, schedule: Q01DX009 (ip), vehicle: saline): 241 % of control and 243 % of control
- T/C (dose: 6.0 mg/kg/injection, schedule: Q01DX009 (ip), vehicle: saline): 107 % of control

Source: PubChem BioAssay AID328 (DTP/NCI, 2004)
